Structures can show the parent of a compound that is named as a salt.
What follows are compounds tested against 5-HT1 receptor (assay: Interaction with serotonin receptors: 5-HT1 receptor, calf hippocampus, ligand 3H-serotonin). Conditions: ligand 3H-serotonin (Table 2), read-out: K1.
Assay type: binding
Method: (§1) Interaction with serotonin receptors
(§2) Inhibition constant K1 (nmol l^-1)
Ligand: ^3 H--serotonin
In generally similar manner there were prepared additional compounds which, when tested against 5-HT, receptors as in Example 7, gave the results shown in Table 2.

Compared with C[C@@H]1CCC[C@H](C)N1CCc1c[nH]c2ccc(O)cc12 [compound 12], C[C@H]1CCC[C@H](C)N1CCc1c[nH]c2ccc(O)cc12 (relative stereo) [compound 17] is 1.7-fold higher in Ki: 0.015 µM for the first, 0.025 µM for the second. The first binds more tightly here.

Compared with COc1ccc2[nH]cc(CCN3[C@H](C)CCC[C@@H]3C)c2c1 [compound 9], COc1ccc2[nH]cc(CCN3[C@@H](C)CCC[C@@H]3C)c2c1 (relative stereo) [compound 20] is 35-fold higher in Ki: 0.013 µM for the first, 0.45 µM for the second. The first binds more tightly here.

First: C[C@@H]1CCC[C@H](C)N1CCc1cn(C)c2ccc(Br)cc12 [compound 34]
Second: C[C@@H]1CCC[C@H](C)N1CCc1c[nH]c2ccc(Br)cc12 [compound 18]
The Ki of the first is 37-fold higher: 1.1 µM for the first, 0.03 µM for the second. The second binds more tightly here.

Going from Cc1ccc2[nH]cc(CCN3[C@H](C)CCC[C@@H]3C)c2c1 [compound 27] to C[C@@H]1CCC[C@H](C)N1CCc1c[nH]c2ccc(O)cc12 [compound 16], the Ki falls from 0.04 µM to 0.004 µM (10-fold).

CC1CC(C)N(CCc2c[nH]c3ccccc23)C(C)C1 (centres unmarked) [compound 26] and CC1CC(C)N(CCc2c[nH]c3ccc(Cl)cc23)C(C)C1 (centres unmarked) [compound 38] are within 1.5-fold of each other in Ki: 0.92 µM for the first, 0.66 µM for the second.

First: C[C@@H]1CCC[C@H](C)N1CCc1c[nH]c2ccccc12 [compound 19]
Second: C[C@H]1CCC[C@H](C)N1CCc1c[nH]c2ccccc12 (relative stereo) [compound 29]
The Ki of the first is 3.8-fold lower: 0.8 µM for the first, 3 µM for the second. The first binds more tightly here.

First: C[C@@H]1CCC[C@H](C)N1CCc1c[nH]c2ccc(OCc3ccccc3)cc12 [compound 11]
Second: C[C@H]1CCC[C@H](C)N1CCc1c[nH]c2ccc(OCc3ccccc3)cc12 (relative stereo) [compound 15]
The Ki of the first is 2.5-fold lower: 0.2 µM for the first, 0.5 µM for the second. The first binds more tightly here.

Compared with C[C@@H]1CCC[C@H](C)N1CCc1c[nH]c2ccc(Cl)cc12 [compound 23], C[C@@H]1CCC[C@H](C)N1CCc1c[nH]c2ccc(F)cc12 [compound 24] is 2.8-fold higher in Ki: 0.06 µM for the first, 0.17 µM for the second. The first binds more tightly here.

Compared with C[C@@H]1CCC[C@H](C)N1CCc1c[nH]c2ccc(C#N)cc12 [compound 28], COc1ccc2[nH]cc(CCN3[C@H](C)CCC[C@@H]3C)c2c1 [compound 10] is 24-fold lower in Ki: 0.24 µM for the first, 0.01 µM for the second.

C[C@@H]1CCC[C@H](C)N1CCc1cn(C(=O)OC(C)(C)C)c2ccccc12 [compound 30] and C[C@@H]1CCC[C@H](C)N1CCc1cn(C(N)=O)c2ccccc12 [compound 13] are the same in Ki: 1.8 µM for the first, 1.8 µM for the second.

First: C[C@@H]1CCC[C@H](C)N1CCc1c[nH]c2ccc(C(N)=O)cc12 [compound 37]
Second: C[C@@H]1CCC[C@H](C)N1CCc1c[nH]c2ccc(CN)cc12 [compound 35]
The Ki of the first is 71-fold lower: 0.007 µM for the first, 0.5 µM for the second. The first binds more tightly here.

C[C@@H]1CCC[C@H](C)N1CCc1c[nH]c2ccc(-n3cc(CCN4[C@H](C)CCC[C@@H]4C)c4cc(Br)ccc43)cc12 [compound 32] and C[C@@H]1CCC[C@H](C)N1CCc1cn(C(=O)c2ccccc2)c2ccc(Br)cc12 [compound 36] are within 1.5-fold of each other in Ki: 0.68 µM for the first, 1 µM for the second.

First: Cc1ccc(S(=O)(=O)n2cc(CCN3[C@H](C)CCC[C@@H]3C)c3cc(Br)ccc32)cc1 [compound 31]
Second: C[C@@H]1CCC[C@H](C)N1CCc1c[nH]c2ccc(OCc3ccccc3)cc12 [compound 14]
The Ki of the first is 4-fold higher: 3.2 µM for the first, 0.8 µM for the second.

Compared with COc1ccc2[nH]cc(CCN3[C@H](C)CCC[C@@H]3C)c2c1 [compound 21], COc1ccc2[nH]cc(CCN3[C@@H](C)CCC[C@@H]3C)c2c1 (relative stereo) [compound 22] is 1.6-fold lower in Ki: 0.07 µM for the first, 0.045 µM for the second.

First: CC1(C)CCCC(C)(C)N1CCc1c[nH]c2ccccc12 [compound 39]
Second: CC1CCCCN1CCc1c[nH]c2ccccc12 (centres unmarked) [compound 25]
The Ki of the first is higher: greater than 10 µM for the first, 0.17 µM for the second. The second binds more tightly here.

These compounds were tested against T1, 5-HT2 receptor (Rattus norvegicus, UniProt P14842) (assay: Interaction with serotonin receptors: 5-HT2 receptor, rat prefrontal cortex, ligand 3H-ketanserin). Conditions: not given.
T1 construct: rat prefrontal cortex; from tissue; host or cells: rat prefrontal cortex
Assay type: binding
Source text: as §1, §2
5-HT2 receptor Contraction of the
Ligand: ^3 H--ketanserin

T1 sequence (P14842 whole entry): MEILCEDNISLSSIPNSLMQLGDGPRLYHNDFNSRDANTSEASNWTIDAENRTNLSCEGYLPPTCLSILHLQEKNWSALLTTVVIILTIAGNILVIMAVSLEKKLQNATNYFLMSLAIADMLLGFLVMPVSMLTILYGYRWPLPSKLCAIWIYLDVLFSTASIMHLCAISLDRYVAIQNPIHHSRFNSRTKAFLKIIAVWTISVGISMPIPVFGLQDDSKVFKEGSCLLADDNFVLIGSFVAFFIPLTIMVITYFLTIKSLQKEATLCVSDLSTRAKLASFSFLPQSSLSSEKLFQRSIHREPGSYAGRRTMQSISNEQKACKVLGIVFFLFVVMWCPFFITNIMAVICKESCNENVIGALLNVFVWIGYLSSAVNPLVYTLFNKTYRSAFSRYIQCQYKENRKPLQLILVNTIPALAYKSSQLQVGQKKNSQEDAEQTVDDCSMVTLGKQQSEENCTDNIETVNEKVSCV

First: C[C@@H]1CCC[C@H](C)N1CCc1c[nH]c2ccccc12 [Example 2, 3-[2-(Cis-2,6-dimethylpiperidinyl)ethyl]indole hydrochloride]
Second: C[C@@H]1CCC[C@H](C)N1CCc1c[nH]c2ccc(Br)cc12 [Example 3, 3-[2-(Cis-2,6-dimethylpiperidinyl)ethyl]-5-bromoindole hydrochloride]
The Ki of the first is 1.9-fold higher: 2.5 µM for the first, 1.3 µM for the second. The second binds more tightly here.

Source: patent publication US4870085A, “Tryptamine derivatives active on central nervous system” (Bayer Aktiengesellschaft, priority 1984, dated 1989)
